The source of these data is PMC7770833, “Design, Synthesis, and Biological Evaluation of a Series of Oxazolone Carboxamides as a Novel Class of Acid Ceramidase Inhibitors” (Journal of Medicinal Chemistry, 2020).

The target in data set [1] is T1, human N-acylethanolamine acid amidase (hNAAA) (Homo sapiens, UniProt Q02083).
T1 construct: expressed in transfected cells; lysosome-enriched lysate
T1 sequence (Q02083 29-359): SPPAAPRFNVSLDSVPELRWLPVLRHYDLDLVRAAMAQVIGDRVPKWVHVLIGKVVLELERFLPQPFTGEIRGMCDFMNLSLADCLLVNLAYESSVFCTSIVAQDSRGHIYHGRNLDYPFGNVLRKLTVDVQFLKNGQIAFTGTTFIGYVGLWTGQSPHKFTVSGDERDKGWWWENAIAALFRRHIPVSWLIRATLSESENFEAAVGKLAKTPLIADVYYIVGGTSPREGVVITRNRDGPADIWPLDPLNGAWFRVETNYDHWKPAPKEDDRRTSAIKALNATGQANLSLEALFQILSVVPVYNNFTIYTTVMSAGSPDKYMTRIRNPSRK
The data set is described as follows: Fluorogenic hNAAA assay. It is filed as biochemical. The conditions noted are these: at up to 125 μM. As for the experimental part: HEK-293 cells stably transfected with the hNAAA coding sequence cloned from a human spleen cDNA library (catalog no. 639124, Clontech, Mountain View, CA, USA) were used as the enzyme source. Cells were grown in DMEM containing 10% FBS, 1% glutamine, 1 mM sodium pyruvate, and 500 μg/mL G418. Cells were harvested and pellets were stored at −80 °C until lysosomal-enriched lysate preparation. Cells were suspended in 20 mM Tris HCl (pH 7.4) with 0.32 M sucrose, sonicated, and centrifuged at 800 × g for 30 min at 4 °C. Supernatants were then ultracentrifuged at 12 000 × g for 30 min at 4 °C. Pellets were re-suspended in PBS buffer (pH 7.4) and subjected to three freeze–thaw cycles at −80 °C. The suspension was finally ultracentrifuged at 105 000 × g for 1 h at 4 °C, supernatants were collected, protein concentration was measured, and samples aliquoted and stored at −80 °C until use.
The assay was run in 96-well microplates (Black OptiPlate-96 F; PerkinElmer, Massachusetts, USA) in a total reaction volume of 200 μL. hNAAA protein preparation (4.0 μg) was pre-incubated for 30 min with various concentrations of test compounds or vehicle control (DMSO 5%) in 100 mM citrate/phosphate buffer (pH 4.5) containing 3.0 mM dithiothreitol (DTT), 0.1% NP40 0.1%, 0.05% bovine serum albumin, and 150 mM NaCl. […]

A short description of data set [2]: In vivo PK study in C57BL/6 mice. Also noted: species or system mouse. The protocol: C57 B6/J male mice, 8 weeks old (22–24 g), were used (Charles River, Calco). All procedures were performed in accordance with the Ethical Guidelines of European Communities Council (Directive 2010/63/EU of 22 September 2010) and accepted by the Italian Ministry of Health. All efforts were made to minimize animal suffering and to use the minimal number of animals required to produce reliable results, according to the “3Rs rules”. Animals were group-housed in ventilated cages and had free access to food and water. They were maintained under a 12 h light/dark cycle (lights on at 8:00 am) at a controlled temperature (21 ± 1 °C) and relative humidity (55 ± 10%). 32b was administrated intravenously (i.v.) at 3 mg/kg/5 mL, vehicle: PEG400/Tween 80/saline solution (10/10/80% in volume, respectively) via tail vein injection and via oral administration (p.o.) at 10 mg/kg/10 mL, vehicle: PEG400/Tween 80/saline solution (10/10/80% in volume, respectively) by an oral gavage. Sample collection. Samples were collected at 5 min, 15 min, 30 min, 1 h, 2 h, and 4 h (i.v. administration) and at 15 min, 30 min, 1 h, 2 h, 4 h, and 6 h (p.o. administration). N = 3 animals per dose time point were treated. Plasma samples were centrifuged at 21,100g for 15 min at 4 °C. An aliquot of each sample was extracted (1:3) with cold CH3CN containing 200 nM of an appropriate internal standard being a close analogue of compound 32b. A calibration curve was prepared in blank mouse plasma over a 1 nM–10 μM range. Three quality controls were prepared by spiking compound 32b in the blank mouse plasma to 20, 200, and 2000 nM as final concentrations. The calibrators and quality controls were extracted (1:3) with the same extraction solution as the plasma samples. The plasma samples, the calibrators, and quality controls were centrifuged at 3270 × g for 15 min at 4 °C. The supernatants were further diluted (1:1) with H2O and analyzed by LC/MS–MS on a Waters Acquity UPLC/MS TQD system consisting of TQD) MS equipped with an ESI interface and a PDA detector. ESI was applied in positive mode. Compound-dependent parameters such as MRM transitions and collision energy were developed for compound 32b and the internal standard. The analyses were run on an Acquity UPLC BEH C18 (50 × 2.1 mm ID, particle size 1.7 μm) with a VanGuard BEH C18 pre-column (5 × 2.1 mm ID, particle size 1.7 μm) at 40 °C. For plasma samples, the mobile phase was H2O + 0.1% HCOOH (A) and CH3CN + 0.1% HCOOH (B) at a flow rate = 0.5 mL/min. A linear gradient was applied starting at 20% B with an initial hold for 0.2 min, then 20–100% B in 2 min. All samples (plasma samples, calibrators, and quality controls) were quantified by a MRM peak area response factor in order to determine the levels of compound 32b in the plasma. The concentrations versus time were plotted and the profiles were fitted using PK Solutions Excel Application (Summit Research Service, USA) in order to determine the PK parameters.

For `CCCCCNC(=O)n1cc(-c2ccc(F)cc2C2CCN(C)CC2)oc1=O` [Compound 32b, 5-[4-Fluoro-2-(1-methyl-4-piperidyl)phenyl]-2-oxo-N-pentyl-oxazole-3-carboxamide], the “effect against hNAAA” value in data set [1] was “no effect”. In addition, the “Vdss (mL/kg)” value in data set [2] (10 mg/kg, p.o.) was 32 877 mL/kg. The AUC at 4 h in data set [2] (male, mouse, iv, 3 mg/kg, plasma) was 533 ng·h/mL; in data set [2] (male, mouse, po, 10 mg/kg, plasma), 709 ng·h/mL. In data set [2] (male, mouse, plasma, iv, 3 mg/kg), this molecule gave a clearance at 4 h of 72 mL/min/kg. Further, the Vd at 4 h in data set [2] (male, mouse, plasma, iv, 3 mg/kg, i.v., read-out: Vdss (converted)) is 12.4 L/kg.

For orientation: AUC means the area under the concentration-time curve, a measure of exposure. High values mean high exposure, low ones low exposure. A word on the clearance: it is the volume of plasma or blood freed of the substance per unit of time. Low values mean a low capacity for elimination, high ones a high capacity for elimination.
